10 molecules from ChEMBL document CHEMBL1201862, “PubChem BioAssay data set” (2004) can be followed below.

Among the test systems are NCI-H226; A549; HT-29; MDA-MB-435; HOP-92; ACHN; BT-549; SF-268; UO-31; KM12; DU-145; SNB-19; LOX IMVI; Malme-3M; CAKI-1; SK-MEL-5; SR; MOLT-4; HOP-62.
Experiment in all cases: NCI tumour cell line growth inhibition, 48 h

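All cell lines were grown in 96-well plates and treated with compound for 48 hours. GI50: concentration for 50% inhibition of growth.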 Calls of active or inactive are those of the source. Rule as the data show it: active = GI50 up to about 1.1 µM and inactive = higher.

`COc1cc(Nc2n[nH]c(NS(=O)(=O)c3cc(C)c(Cl)cc3S)n2)cc(OC)c1OC`: the GI50 with NCI-H226, with A549, with HT-29, in the test with MDA-MB-435, in the test on HOP-92 and in the test on ACHN was > 100 µM (inactive) each time. The GI50 in the test on BT-549, in the test with SF-268, in the test on UO-31, in the test on KM12, in the test on DU-145 and with SNB-19 was > 100 µM (inactive) each time. Besides, the GI50 in the test on LOX IMVI, in the test on Malme-3M, with CAKI-1, in the test on SK-MEL-5, in the test with SR and with MOLT-4 was > 100 µM (inactive) in each case. Besides, the GI50 in the test on HOP-62 was > 100 µM (inactive).
For `O=c1c2ccccc2nc(-c2cc3c(cc2Cl)Sc2nccn2S3(=O)=O)n1-c1ccccc1`, the GI50 with NCI-H226 was > 100 µM (inactive); in the test with A549, > 100 µM (inactive); in the test with HT-29, 40.5 µM (inactive); with MDA-MB-435 it was 22.8 µM (inactive); in the test on HOP-92 it was 22.9 µM (inactive); in the test on ACHN, > 100 µM (inactive). Moreover, the GI50 was 41.1 µM (inactive) in the test with BT-549; 7.1 µM (inactive) with SF-268; 16.6 µM (inactive) in the test with UO-31; 11.1 µM (inactive) in the test on KM12; 20.8 µM (inactive) in the test with DU-145; 40.8 µM (inactive) in the test with SNB-19. Also, the GI50 was 88.7 µM (inactive) in the test on LOX IMVI; > 100 µM (inactive) in the test on Malme-3M; > 100 µM (inactive) in the test on CAKI-1; 45.3 µM (inactive) with SK-MEL-5; 67.6 µM (inactive) with SR; > 100 µM (inactive) in the test with MOLT-4. For the same molecule, the GI50 in the test with HOP-62 is 18.2 µM (inactive).
In the case of `CC(C)(C)c1ccc(C(C)(C)C)c(N2C(=O)[C@@H]3[C@@H]4C=C[C@@H](C4)[C@]3(C)C2=O)c1`, the GI50 in the test with NCI-H226 was 26.9 µM (inactive); in the test with A549 it was 41 µM (inactive); in the test with HT-29, 29.2 µM (inactive); in the test with MDA-MB-435 it was 15.5 µM (inactive); in the test on HOP-92 it was 0.869 µM (active); in the test with ACHN it was 21.5 µM (inactive). The GI50 was 22.4 µM (inactive) in the test on BT-549; 27.9 µM (inactive) in the test with SF-268; 29.3 µM (inactive) with UO-31; 36.6 µM (inactive) in the test on KM12; 20.2 µM (inactive) with DU-145; > 100 µM (inactive) in the test with SNB-19. Further, the GI50 in the test on LOX IMVI is 13.9 µM (inactive); in the test on Malme-3M, 21.9 µM (inactive); with CAKI-1 it was 22.2 µM (inactive); with SK-MEL-5 it was 30.8 µM (inactive); in the test with SR, 5.2 µM (inactive); in the test on MOLT-4, 14.9 µM (inactive). In addition, in the test with HOP-62, the GI50 is 44 µM (inactive).
Take `COc1cc2c(NCCCCCCO[N+](=O)[O-])ncnc2c(OC)c1OC`: the GI50 is 16 µM (inactive) in the test with NCI-H226; 28.7 µM (inactive) in the test with A549; 36.1 µM (inactive) with HT-29; 18.1 µM (inactive) in the test on MDA-MB-435; 14.6 µM (inactive) in the test with HOP-92; 32.9 µM (inactive) with ACHN. Moreover, the GI50 with BT-549 was 23.1 µM (inactive); in the test with SF-268, 25.5 µM (inactive); in the test with UO-31, 7.93 µM (inactive); in the test on KM12 it was 16.2 µM (inactive); with DU-145, 24.5 µM (inactive); with SNB-19, 66.5 µM (inactive). The GI50 in the test on LOX IMVI is 20.2 µM (inactive); in the test on Malme-3M, 13.1 µM (inactive); in the test on CAKI-1, 19.1 µM (inactive); in the test with SK-MEL-5, 11.9 µM (inactive); in the test with SR, 9.75 µM (inactive); in the test with MOLT-4, 16.5 µM (inactive). The GI50 with HOP-62 is 26.6 µM (inactive).
For `NC1=Nc2cc(C(F)(F)F)ccc2Sc2nc3ccccc3n21`, the GI50 in the test with NCI-H226 is 12.1 µM (inactive); in the test with A549 it was > 56 µM (inactive); in the test with HT-29, 12.6 µM (inactive); in the test on MDA-MB-435 it was > 100 µM (inactive); in the test with HOP-92, 7.6 µM (inactive); in the test on ACHN it was > 78.9 µM (inactive). Moreover, the GI50 in the test with BT-549 was > 100 µM (inactive); in the test with SF-268, 16.6 µM (inactive); in the test with UO-31 it was > 20.5 µM (inactive); in the test on KM12 it was > 37 µM (inactive); with DU-145, > 94.6 µM (inactive); in the test on SNB-19, 15.6 µM (inactive). The GI50 in the test with LOX IMVI is 4.85 µM (inactive); in the test with Malme-3M it was > 86.1 µM (inactive); with CAKI-1 it was 84.9 µM (inactive); in the test on SK-MEL-5 it was 6.73 µM (inactive); in the test with SR, 3.61 µM (inactive); with MOLT-4, 4.24 µM (inactive). In addition, in the test on HOP-62, the GI50 is > 60 µM (inactive).
As to `Cc1cc(NN)nc2[nH]nc(N)c12`, the GI50 in the test on NCI-H226 was > 100 µM (inactive); in the test on A549, > 100 µM (inactive); in the test on HT-29, > 100 µM (inactive); with MDA-MB-435 it was 93.1 µM (inactive); in the test with HOP-92 it was > 100 µM (inactive); with ACHN, > 100 µM (inactive). In addition, the GI50 with BT-549, in the test with SF-268, with UO-31, in the test with KM12, in the test on DU-145 and in the test with SNB-19 was > 100 µM (inactive) in each case. In addition, the GI50 in the test with LOX IMVI was > 100 µM (inactive); in the test with Malme-3M, > 100 µM (inactive); in the test on CAKI-1 it was > 100 µM (inactive); in the test on SK-MEL-5, > 100 µM (inactive); in the test with SR, 69.5 µM (inactive); with MOLT-4, 43.3 µM (inactive). The GI50 in the test on HOP-62 was > 100 µM (inactive).
For `C=C1C[C@H](O)[C@H]2C(C[Se]c3ccccc3)C(=O)O[C@@H]2[C@H]2[C@H](C)C(O)C[C@@H]12` (stereo not given in full), the GI50 was 23.1 µM (inactive) in the test on NCI-H226; 44.2 µM (inactive) with A549; 46.1 µM (inactive) in the test with HT-29; 80.2 µM (inactive) in the test on MDA-MB-435; 29.3 µM (inactive) in the test on HOP-92; 27.9 µM (inactive) in the test with ACHN. The GI50 in the test on BT-549 is 28.8 µM (inactive); in the test on SF-268, 67.6 µM (inactive); in the test on UO-31, 22.8 µM (inactive); in the test with KM12, 40 µM (inactive); with DU-145, 44.2 µM (inactive); in the test with SNB-19 it was > 100 µM (inactive). Also, the GI50 is 21.2 µM (inactive) with LOX IMVI; 40.6 µM (inactive) with Malme-3M; 71.6 µM (inactive) with CAKI-1; 33.6 µM (inactive) with SK-MEL-5; 23.4 µM (inactive) in the test on SR; 31.6 µM (inactive) in the test on MOLT-4. For the same molecule, the GI50 in the test with HOP-62 was > 100 µM (inactive).
For `O=C(O)CSc1nnc(CCCCCCCCc2nnc(SCC(=O)O)o2)o1`, the GI50 in the test with NCI-H226 is > 100 µM (inactive); in the test on A549 it was > 100 µM (inactive); in the test with HT-29, > 100 µM (inactive); in the test on MDA-MB-435, > 100 µM (inactive); in the test on HOP-92, 79.8 µM (inactive); with ACHN, > 100 µM (inactive). Moreover, the GI50 in the test on BT-549, with SF-268, with UO-31, with KM12, with DU-145 and in the test with SNB-19 was > 100 µM (inactive) each time. Also, the GI50 in the test on LOX IMVI, in the test with Malme-3M, in the test on CAKI-1, in the test with SK-MEL-5, with SR and in the test on MOLT-4 was > 100 µM (inactive) throughout. Further, in the test with HOP-62, the GI50 is > 100 µM (inactive).
As to `O=C1c2ccccc2C2CNC1(O)c1ccccc12` (stereo not given), the GI50 with NCI-H226 is 35.1 µM (inactive); in the test on A549, > 100 µM (inactive); in the test on HT-29, > 100 µM (inactive); in the test on MDA-MB-435, > 100 µM (inactive); in the test with HOP-92, > 100 µM (inactive); in the test with ACHN it was > 100 µM (inactive). Besides, the GI50 with BT-549, in the test with SF-268, in the test with UO-31, with KM12, in the test with DU-145 and in the test on SNB-19 was > 100 µM (inactive) throughout. The GI50 in the test on LOX IMVI, with Malme-3M, with CAKI-1, with SK-MEL-5, with SR and with MOLT-4 was > 100 µM (inactive) in each case. In addition, the GI50 in the test with HOP-62 was > 100 µM (inactive).
With `Cn1cc(S(=O)(=O)NC(=O)Nc2ccc(Cl)cc2)c2ccccc21`, the GI50 in the test on NCI-H226 was 83.8 µM (inactive); in the test with A549, 63.4 µM (inactive); with HT-29 it was > 100 µM (inactive); with MDA-MB-435, 52.1 µM (inactive); in the test with HOP-92, > 100 µM (inactive); in the test on ACHN it was 25.4 µM (inactive). Moreover, the GI50 was > 100 µM (inactive) in the test on BT-549; > 100 µM (inactive) in the test on SF-268; 44.8 µM (inactive) in the test with UO-31; 28.5 µM (inactive) in the test with KM12; 49.2 µM (inactive) in the test on DU-145; > 100 µM (inactive) in the test with SNB-19. Besides, the GI50 with LOX IMVI is 93.1 µM (inactive); in the test with Malme-3M, > 100 µM (inactive); in the test with CAKI-1, 15.5 µM (inactive); with SK-MEL-5, 73.5 µM (inactive); in the test on SR, > 100 µM (inactive); in the test on MOLT-4 it was > 100 µM (inactive). Also, the GI50 with HOP-62 was 15.1 µM (inactive).
